molecular target: 3CL Protease (Severe acute respiratory syndrome coronavirus 2, UniProt P0DTD1); test: 3CL Protease enzymatic activity assay (BPS Bioscience Assay Kit #78043-1, fluorescence); type: biochemical, SARS-CoV-2; conditions: Table A; 30 min preincubation, 40 μM substrate, 4 hours at room temperature; read-out: IC50, nM (3CL Protease enzymatic activity)
Description: For determination of 3CL Protease enzymatic activity was used Assay Kit of BPS Bioscience, San Diego, CA (Catalog #78043-1).
All samples and controls should be tested in duplicate. • 1) Just before use, dilute 0.5 M DTT 500 times into the 3CL Protease Assay Buffer to obtain a DTT concentration of 1 mM. For example, add 10 μl of 0.5 M DTT to 5 ml of assay buffer. Prepare enough DTT-containing buffer as required for the assay. Store the remaining assay buffer at −20° C. • 2) Thaw the 3CL Protease on ice. Briefly spin the tube containing the enzyme to recover the full content of the tube. Note: 3CL Protease enzyme is sensitive to freeze/thaw cycles. […] Note: The exact concentration and volume of enzyme is lot-specific and will be indicated on the tube. Calculate required dilution from the information in the tube. It may be desirable to dilute the enzyme serially to avoid using large amounts of protease assay buffer for the dilution. • 4) Add 30 μl of diluted 3CL Protease to the wells designated as “Positive Control,” “Inhibitor Control,” and “Test Inhibitor.” Add 30 μl of Assay Buffer (containing 1 mM DTT) to the “Blank” wells. • 5) Dilute the 50 μg GC376 in 200 μl of Assay Buffer to obtain a 500 μM solution. Add 10 μl of GC376 (500 μM) to the wells labeled “Inhibitor Control”. Aliquot and store the remaining solution at −80° C. • 6) Prepare the Test Inhibitor. The final concentration of DMSO in the assay should not exceed 1%. If the Test Inhibitor is dissolved in DMSO, make a 100-fold higher concentration of the compound than the highest desired concentration. Then make a 20-fold dilution in 1× Assay Buffer (containing DTT). At this step the compound concentration is 5-fold higher than the final concentration. If the test inhibitor is dissolved in water, make a 5-fold higher concentration of the test compound than the final desired concentration in the Assay buffer (containing DTT). Add 10 μl of Test Inhibitor to each well designated “Test Inhibitor”. • 7) Diluent Solution (no inhibitor): add 10 μl of assay buffer (if the test compound is water soluble and was diluted in assay buffer) or 10 μl of 5% DMSO diluted in assay buffer (if DMSO was used to dissolve the test inhibitor) to “Blank” and “Positive Control” wells.
• 8) Preincubate for 30 min at room temperature with slow shaking. • 9) Dilute the 25 μl of 3CL Protease substrate (10 mM) in 1.25 ml of the Assay Buffer containing DTT, to make a […] solution. The final concentration of the 3CL Protease substrate in a 50 μl reaction is 40 μM. • 10) Start the reaction by adding 10 μl of the substrate solution to all the wells. Seal the plate with the plate sealer and incubate for 4 hours at room temperature with slow shaking. • 11) Measure the fluorescence intensity in a microtiter plate-reader fluorometer (Tecan Spark Cyto) capable of excitation at a wavelength 360 nm and detection of emission at a wavelength 460 nm. The fluorescence intensity can also be measured kinetically. The “Blank” value is subtracted from all other values. • The % inhibition was then used to calculate the IC50 values.

First: CC(C)(C)[C@H](NC(=O)C(F)(F)F)C(=O)N1C[C@H]2[C@@H]([C@H]1C(=O)NC(C#N)Cc1cc3c([nH]c1=O)CCCC3)C2(C)C (mixture of isomers) [Compound 121, (1R,2S,5S)—N-(1-Cyano-2-(2-oxo-1,2,5,6,7,8-hexahydroquinolin-3-yl)ethyl)-3-((S)-3,3-dimethyl-2-(2,2,2-trifluoroacetamido)butanoyl)-6,6-dimethyl-3-azabicyclo[3.1.0]hexane-2-carboxamide]
Second: CC(C)(C)[C@H](NC(=O)C(F)(F)F)C(=O)N1C[C@H]2C([C@H]1C(=O)NC(C#N)Cc1cc3c([nH]c1=O)CCOC3)C2(C)C (stereo in doubt) [Compound 123, (1R,2S,5S)—N-(1-Cyano-2-(2-oxo-1,5,7,8-tetrahydro-2H-pyrano[4,3-b]pyridine-3-yl)ethyl)-3-((S)-3,3-dimethyl-2-(2,2,2-trifluoroacetamido)butanoyl)-6,6-dimethyl-3-azabicyclo[3.1.0]hexane-2-carboxamide]
The IC50 of the first is higher: 250 to 500 nM for the first, 100 to 250 nM for the second.

First: CC(C)(C)[C@H](NC(=O)C(F)(F)F)C(=O)N1C[C@H]2C([C@H]1C(=O)NC(C#N)Cc1ccc[nH]c1=O)C2(C)C (stereo in doubt) [Compound 101, (1R,2S,5S)—N-(1-Cyano-2-(2-oxo-1,2-dihydropyridin-3-yl)ethyl)-3-((S)-3,3-dimethyl-2-(2,2,2-trifluoroacetamido)butanoyl)-6,6-dimethyl-3-azabicyclo[3.1.0]hexane-2-carboxamide]
Second: Cn1cccc(CC(C#N)NC(=O)[C@@H]2C3[C@H](CN2C(=O)[C@@H](NC(=O)C(F)(F)F)C(C)(C)C)C3(C)C)c1=O (stereo in doubt) [Compound 112, (1R,2S,5S)—N-(1-Cyano-2-(1-methyl-2-oxo-1,2-dihydropyridin-3-yl)ethyl)-3-((S)-3,3-dimethyl-2-(2,2,2-trifluoroacetamido)butanoyl)-6,6-dimethyl-3-azabicyclo[3.1.0]hexane-2-carboxamide]
The IC50 of the first is lower: 100 to 250 nM for the first, at least 1000 nM for the second.

First: Cc1ccc2[nH]c(=O)c(CC(C#N)NC(=O)[C@@H]3C4[C@H](CN3C(=O)[C@@H](NS(C)(=O)=O)C(C)(C)C)C4(C)C)cc2c1 (stereo in doubt) [Compound 102, (1R,2S,5S)—N-(1-Cyano-2-(6-methyl-2-oxo-1,2-dihydroquinolin-3-yl)ethyl)-3-((S)-3,3-dimethyl-2-(methylsulfonamido)butanoyl)-6,6-dimethyl-3-azabicyclo[3.1.0]hexane-2-carboxamide]
Second: Cc1ccc2[nH]c(=O)c(C[C@@H](C#N)NC(=O)[C@@H]3[C@H]4[C@H](CN3C(=O)[C@@H](NC(=O)C(F)(F)F)C(C)(C)C)C4(C)C)cc2c1 (stereo in doubt) [Compound 107, (1R,2S,5S)—N-(1-Cyano-2-(6-methyl-2-oxo-1,2-dihydroquinolin-3-yl)ethyl)-3-((S)-3,3-dimethyl-2-(2,2,2-trifluoroacetamido)butanoyl)-6,6-dimethyl-3-azabicyclo[3.1.0]hexane-2-carboxamide]
The IC50 of the first is lower: under 50 nM for the first, 50 to 100 nM for the second. The first is the more potent here.

`CC(C)(C)[C@H](NC(=O)C(F)(F)F)C(=O)N1C[C@H]2C([C@H]1C(=O)NC(C#N)Cc1cc3cc(Cl)ccc3[nH]c1=O)C2(C)C` (stereo in doubt) [Compound 104, (1R,2S,5S)—N-(2-(6-Chloro-2-oxo-1,2-dihydroquinolin-3-yl)-1-cyanoethyl)-3-((S)-3,3-dimethyl-2-(2,2,2-trifluoroacetamido)butanoyl)-6,6-dimethyl-3-azabicyclo[3.1.0]hexane-2-carboxamide] and `CC(C)(C)[C@H](NC(=O)C(F)(F)F)C(=O)N1C[C@H]2C([C@H]1C(=O)NC(C#N)Cc1cc3ccc(Cl)cc3[nH]c1=O)C2(C)C` (stereo in doubt) [Compound 105, (1R,2S,5S)—N-(2-(7-Chloro-2-oxo-1,2-dihydroquinolin-3-yl)-1-cyanoethyl)-3-((S)-3,3-dimethyl-2-(2,2,2-trifluoroacetamido)butanoyl)-6,6-dimethyl-3-azabicyclo[3.1.0]hexane-2-carboxamide] fall in the same range of IC50: 50 to 100 nM for the first, 50 to 100 nM for the second.

Compared with `CC(C)(C)[C@H](NC(=O)C(F)(F)F)C(=O)N1C[C@H]2C([C@H]1C(=O)NC(C#N)Cc1cc3ccc(F)cc3[nH]c1=O)C2(C)C` (stereo in doubt) [Compound 106, (1R,2S,5S)—N-(1-Cyano-2-(7-fluoro-2-oxo-1,2-dihydroquinolin-3-yl)ethyl)-3-((S)-3,3-dimethyl-2-(2,2,2-trifluoroacetamido)butanoyl)-6,6-dimethyl-3-azabicyclo[3.1.0]hexane-2-carboxamide], `COc1ccc2[nH]c(=O)c(CC(C#N)NC(=O)[C@@H]3C4[C@H](CN3C(=O)[C@@H](NC(=O)C(F)(F)F)C(C)(C)C)C4(C)C)cc2c1` (stereo in doubt) [Compound 109, (1R,2S,5S)—N-(1-Cyano-2-(6-methoxy-2-oxo-1,2-dihydroquinolin-3-yl)ethyl)-3-((S)-3,3-dimethyl-2-(2,2,2-trifluoroacetamido)butanoyl)-6,6-dimethyl-3-azabicyclo[3.1.0]hexane-2-carboxamide] is higher in IC50: 100 to 250 nM for the first, 250 to 500 nM for the second. The first is the more potent here.

`CC(C)(C)[C@H](NS(C)(=O)=O)C(=O)N1C[C@H]2C([C@H]1C(=O)NC(C#N)Cc1cc3c([nH]c1=O)CCCC3)C2(C)C` (stereo in doubt) [Compound 122, (1R,2S,5S)—N-(1-Cyano-2-(2-oxo-1,2,5,6,7,8-hexahydroquinolin-3-yl)ethyl)-3-((S)-3,3-dimethyl-2-(methylsulfonamido)butanoyl)-6,6-dimethyl-3-azabicyclo[3.1.0]hexane-2-carboxamide] and `CC(C)(C)[C@H](NS(C)(=O)=O)C(=O)N1C[C@H]2C([C@H]1C(=O)NC(C#N)Cc1cc3c([nH]c1=O)CCOC3)C2(C)C` (stereo in doubt) [Compound 124, (1R,2S,5S)—N-(1-Cyano-2-(2-oxo-1,5,7,8-tetrahydro-2H-pyrano[4,3-b]pyridine-3-yl)ethyl)-3-((S)-3,3-dimethyl-2-(methylsulfonamido)butanoyl)-6,6-dimethyl-3-azabicyclo[3.1.0]hexane-2-carboxamide] fall in the same range of IC50: 100 to 250 nM for the first, 100 to 250 nM for the second.

First: CC(C)(C)[C@H](NC(=O)C(F)(F)F)C(=O)N1C[C@H]2C([C@H]1C(=O)NC(C#N)Cc1cc3c([nH]c1=O)CCC(F)(F)C3)C2(C)C (stereo in doubt) [Compound 125, (1R,2S,5S)—N-(1-Cyano-2-(6,6-difluoro-2-oxo-1,2,5,6,7,8-hexahydroquinolin-3-yl)ethyl)-3-((S)-3,3-dimethyl-2-(2,2,2-trifluoroacetamido)butanoyl)-6,6-dimethyl-3-azabicyclo[3.1.0]hexane-2-carboxamide]
Second: CC1(C)CCc2[nH]c(=O)c(CC(C#N)NC(=O)[C@@H]3C4[C@H](CN3C(=O)[C@@H](NC(=O)C(F)(F)F)C(C)(C)C)C4(C)C)cc2C1 (stereo in doubt) [Compound 127, (1R,2S,5S)—N-(1-Cyano-2-(6,6-dimethyl-2-oxo-1,2,5,6,7,8-hexahydroquinolin-3-yl)ethyl)-3-((S)-3,3-dimethyl-2-(2,2,2-trifluoroacetamido)butanoyl)-6,6-dimethyl-3-azabicyclo[3.1.0]hexane-2-carboxamide]
The IC50 of the first is lower: 250 to 500 nM for the first, 500 to 1000 nM for the second.

Work on `CC(C)(C)[C@H](NS(C)(=O)=O)C(=O)N1C[C@H]2C([C@H]1C(=O)NC(C#N)Cc1cc3c([nH]c1=O)CCC(F)(F)C3)C2(C)C` (stereo in doubt) [Compound 126, (1R,2S,5S)—N-(1-Cyano-2-(6,6-difluoro-2-oxo-1,2,5,6,7,8-hexahydroquinolin-3-yl)ethyl)-3-((S)-3,3-dimethyl-2-(methylsulfonamido)butanoyl)-6,6-dimethyl-3-azabicyclo[3.1.0]hexane-2-carboxamide] yielded an IC50 of 100 to 250 nM.

same assay, conditions: Table B; comparison with known compound K; read-out: IC50, nM (3CL Protease enzymatic activity, comparative data)

First: CC(C)(C)[C@H](NC(=O)C(F)(F)F)C(=O)N1C[C@H]2C([C@H]1C(=O)NC(C#N)Cc1ccc[nH]c1=O)C2(C)C (stereo in doubt) [Compound 101, (1R,2S,5S)—N-(1-Cyano-2-(2-oxo-1,2-dihydropyridin-3-yl)ethyl)-3-((S)-3,3-dimethyl-2-(2,2,2-trifluoroacetamido)butanoyl)-6,6-dimethyl-3-azabicyclo[3.1.0]hexane-2-carboxamide]
Second: CC(C)(C)[C@H](NC(=O)C(F)(F)F)C(=O)N1C[C@H]2C([C@H]1C(=O)NC(C#N)Cc1cc3cc(Cl)ccc3[nH]c1=O)C2(C)C (stereo in doubt) [Compound 104, (1R,2S,5S)—N-(2-(6-Chloro-2-oxo-1,2-dihydroquinolin-3-yl)-1-cyanoethyl)-3-((S)-3,3-dimethyl-2-(2,2,2-trifluoroacetamido)butanoyl)-6,6-dimethyl-3-azabicyclo[3.1.0]hexane-2-carboxamide]
The IC50 of the first is 1.7-fold higher: 147 nM for the first, 89 nM for the second. The second is the more potent here.

In the case of `CC(C)(C)[C@H](NC(=O)C(F)(F)F)C(=O)N1C[C@H]2C([C@H]1C(=O)NC(C#N)Cc1cc3c([nH]c1=O)CCOC3)C2(C)C` (stereo in doubt) [Compound 123, (1R,2S,5S)—N-(1-Cyano-2-(2-oxo-1,5,7,8-tetrahydro-2H-pyrano[4,3-b]pyridine-3-yl)ethyl)-3-((S)-3,3-dimethyl-2-(2,2,2-trifluoroacetamido)butanoyl)-6,6-dimethyl-3-azabicyclo[3.1.0]hexane-2-carboxamide], the IC50 was 180 nM.

Source: US20260015337A1 (Trawsfynydd Therapeutics, Inc., priority 2022, published 2026)
